# From patent US10131652B2, “Pyrimidinyloxy benzene derivatives as herbicides” (E. I. DU PONT DE NEMOURS AND COMPANY, priority 2014, dated 2018)
# Legend:
# Experiment in all cases: Test F pre-/postemergence plant response
# Format in all cases: in vivo
# soybean (Glycine max) = settings: Glycine max, pre-emergence, scale 0 to 100, read-out: Plant response rating, Soybean
# Procedure, shortened: (§1)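 Visual control ratings were scored 0 (no effect) to 100 (complete control) versus untreated plants after 14–21 greenhouse days. Compounds, formulated in a surfactant-containing non-phytotoxic solvent, were applied both to silt loam at planting (preemergence) and to 1- to 4-leaf plants 2–18 cm tall (postemergence).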
# [1] = tested on: lambsquarters (Chenopodium album); settings: Chenopodium album, pre-emergence, Preemergence, scale 0 to 100, read-out: Plant response rating, Lambsquarters
# Procedure, shortened: as §1
# [2] = tested on: giant foxtail (Setaria faberii); settings: Setaria faberi, pre-emergence, scale 0 to 100, read-out: Plant response rating, Foxtail, Giant
# Procedure, shortened: as §1
# [3] = tested on: surinam grass (Brachiaria decumbens); settings: Urochloa decumbens, pre-emergence, scale 0 to 100, read-out: Plant response rating, Surinam Grass
# Procedure, shortened: as §1
# [4] = tested on: Italian ryegrass (Lolium multiflorum); settings: Lolium multiflorum, pre-emergence, Preemergence, scale 0 to 100, read-out: Plant response rating, Ryegrass, Italian
# Procedure, shortened: as §1
# [5] = tested on: morningglory (Ipomoea coccinea); settings: Ipomoea, pre-emergence, scale 0 to 100, read-out: Plant response rating, Morningglory
# Procedure, shortened: as §1
# [6] = tested on: Brazilian crabgrass (Digitaria horizontalis); settings: Digitaria horizontalis, pre-emergence, scale 0 to 100, read-out: Plant response rating, Crabgrass, Brazil
# Procedure, shortened: as §1
# [7] = tested on: sandbur (southern sandbur, Cenchrus echinatus); settings: Cenchrus echinatus, pre-emergence, scale 0 to 100, read-out: Plant response rating, Sandbur
# Procedure, shortened: as §1
# [8] = tested on: barnyardgrass (Echinochloa crus-galli); settings: Echinochloa crus-galli, pre-emergence, scale 0 to 100, read-out: Plant response rating, Barnyardgrass
# Procedure, shortened: as §1
# [9] = tested on: large (Lg) crabgrass (Digitaria sanguinalis); settings: Digitaria sanguinalis, pre-emergence, scale 0 to 100, read-out: Plant response rating, Crabgrass, Large
# Procedure, shortened: as §1
# [10] = tested on: dayflower (Virginia (VA) dayflower, Commelina virginica); settings: Commelina virginica, pre-emergence, scale 0 to 100, read-out: Plant response rating, Dayflower, VA
# Procedure, shortened: as §1
smiles,measurement,setting,value
"Fc1cccc(Oc2ncc(Cl)cn2)c1-c1cc(C(F)(F)F)on1 [Compound 168, 5-chloro-2-[2-[5-(trifluoromethyl)-3-isoxazolyl]-3-fluorophenoxy]pyrimidine]",plant injury at 16 g/ha,soybean (Glycine max); 16 g ai/ha Preemergence,0%
same,plant injury at 31 g/ha,soybean (Glycine max); 31 g ai/ha Preemergence,0%
same,plant injury at 125 g/ha,soybean (Glycine max); 125 g ai/ha Preemergence,40%
same,plant injury at 62 g/ha,soybean (Glycine max); Preemergence,20%
same,pest or weed control at 16 g/ha,[1]; 16 g ai/ha,100%
same,pest or weed control at 31 g/ha,[1]; 31 g ai/ha,100%
same,pest or weed control at 125 g/ha,[1]; 125 g ai/ha,100%
same,pest or weed control at 62 g/ha,[1],100%
same,pest or weed control at 16 g/ha,[2]; 16 g ai/ha Preemergence,65%
same,pest or weed control at 31 g/ha,[2]; 31 g ai/ha Preemergence,98%
same,pest or weed control at 62 g/ha,[2]; 62 g ai/ha Preemergence,100%
same,pest or weed control at 125 g/ha,[2]; 125 g ai/ha Preemergence,100%
same,pest or weed control at 16 g/ha,[3]; 16 g ai/ha Preemergence,50%
same,pest or weed control at 31 g/ha,[3]; 31 g ai/ha Preemergence,65%
same,pest or weed control at 125 g/ha,[3]; 125 g ai/ha Preemergence,100%
same,pest or weed control at 62 g/ha,[3]; Preemergence,70%
same,pest or weed control at 16 g/ha,[4]; 16 g ai/ha,15%
same,pest or weed control at 31 g/ha,[4]; 31 g ai/ha,30%
same,pest or weed control at 125 g/ha,[4]; 125 g ai/ha,70%
same,pest or weed control at 62 g/ha,[4],65%
same,pest or weed control at 16 g/ha,[5]; 16 g ai/ha Preemergence,0%
same,pest or weed control at 31 g/ha,[5]; 31 g ai/ha Preemergence,0%
same,pest or weed control at 125 g/ha,[5]; 125 g ai/ha Preemergence,75%
same,pest or weed control at 62 g/ha,[5]; Preemergence,15%
same,pest or weed control at 16 g/ha,[6]; 16 g ai/ha Preemergence,65%
same,pest or weed control at 31 g/ha,[6]; 31 g ai/ha Preemergence,100%
same,pest or weed control at 62 g/ha,[6]; 62 g ai/ha Preemergence,100%
same,pest or weed control at 125 g/ha,[6]; 125 g ai/ha Preemergence,100%
same,pest or weed control at 16 g/ha,[7]; 16 g ai/ha Preemergence,10%
same,pest or weed control at 31 g/ha,[7]; 31 g ai/ha Preemergence,30%
same,pest or weed control at 125 g/ha,[7]; 125 g ai/ha Preemergence,90%
same,pest or weed control at 62 g/ha,[7]; Preemergence,65%
same,pest or weed control at 16 g/ha,[8]; 16 g ai/ha Preemergence,0%
same,pest or weed control at 31 g/ha,[8]; 31 g ai/ha Preemergence,25%
same,pest or weed control at 62 g/ha,[8]; 62 g ai/ha Preemergence,80%
same,pest or weed control at 125 g/ha,[8]; 125 g ai/ha Preemergence,100%
same,pest or weed control at 16 g/ha,[9]; 16 g ai/ha Preemergence,65%
same,pest or weed control at 31 g/ha,[9]; 31 g ai/ha Preemergence,95%
same,pest or weed control at 62 g/ha,[9]; 62 g ai/ha Preemergence,98%
same,pest or weed control at 125 g/ha,[9]; 125 g ai/ha Preemergence,100%
same,pest or weed control at 16 g/ha,[10]; 16 g ai/ha Preemergence,5%
same,pest or weed control at 31 g/ha,[10]; 31 g ai/ha Preemergence,10%
same,pest or weed control at 62 g/ha,[10]; 62 g ai/ha Preemergence,70%
same,pest or weed control at 125 g/ha,[10]; 125 g ai/ha Preemergence,90%
